Reference: US10213451B2, “Methods and compounds for modulating the secretion or expression of adhesion proteins or angiopoietins of cells” (PACIFIC ARROW LIMITED, priority 2004, dated 2019)
“And” between values parts separate entries of the source, which are not always exact repeats. Identical values can stand only once. Like-named read-outs stand apart in the source and are kept apart here.

Assays:
Assay type in all cases: cell-based, human
ES2(ovarian) cells = assay: MTT assay ES2; settings: for viable cells by MTT assay: ES2, 10 ug/ml
[1] = system: CD54 expression in ES2 cells; assay: Microarray gene expression, Table 11; settings: probe 202638_s_at
Method: (§1) Y/D is the ratio (in folds) of gene expression in cells treated with compound Y as compared with those of the no drug control (D),
(§2) YM/D is the ratio of gene expression in cells treated with compound YM (ACH-Y, Y without sugar moiety) compared with those of the no drug control (D)
(§3) Cell culture and drug-treatment.: ES2 cells were seeded in a T-25 flask with 4.5 million cells per flask for 24 hours. Cell culture was replaced with fresh medium with xanifolia-Y (Y) or DMSO no drug control (D) for 24 hours. Cells were then harvested for RNA isolation. Three experiments were done.
RNA extraction, labeling, hybridization, and data analysis. RNA was extracted from tumor cells using the Qiagen RNeasy Kit. RNA quality and quantity was checked by the Agilent BioAnalyzer and the NanoDrop® ND-1000 spectrophotometer respectively before further manipulation. […] The images were analyzed and quality control metrics recorded using Affymetrix GCOS software version 1.4. Lastly, the expression value for each gene was calculated using dChip PM-only model based or Plier algorithm.
Pairwise comparisons were made as follows: Treated vs. Control (Y vs. D), Modified Drug vs Control (YM/ACY-H vs. D) and Treated vs. Modified Drug (Y vs. YM/ACH-Y) Cel files analyzed using the Bioconductor package of R Statistical programming. […]

[2] = system: myosin expression in ES2 cells; assay: Microarray gene expression, Table 7; settings: for MYO6 myosin VI, gene expression ratio to no drug control (D): probe 203215_s_at; for MYO5A myosin VA, gene expression ratio to no drug control (D): probe 204527_at; for MYH9 myosin, heavy polypeptide 9, non-muscle, gene expression ratio to no drug control (D): probe 211926_s_at; for MYO1D myosin ID, gene expression ratio to no drug control (D): probe 212338_at; for MYH10 myosin, heavy polypeptide 10, non-muscle, gene expression ratio to no drug control (D): probe 212372_at; for MYO1C Myosin IC, gene expression ratio to no drug control (D): probe 225080_at; for expression ratio to the control, myosin family: span over probes of Table 7
Method: as §1, §2, §3
RNA extraction, labeling, hybridization, and data analysis. RNA was extracted from tumor cells using the Qiagen RNeasy Kit. RNA quality and quantity was checked by the Agilent BioAnalyzer and the NanoDrop® ND-1000 spectrophotometer respectively before further manipulation. The first and second cDNA strands were synthesized from 20 ng of total RNA using the Affymetrix T7 oligo(dT) primer protocol and kit for the two-cycle amplification. To produce amplified biotin-labeled-cRNA, the cDNA was […] by in vitro transcription using the MegaScript kit from Ambion. 15.0 μg of the labeled cRNA was fragmented and re-checked for concentration using the NanoDrop® ND-1000 spectrophotometer. A hybridization cocktail containing Affymetrix spike-in controls and fragmented labeled cRNA was loaded onto the Human U133 Plus 2.0 GeneChip® oligonucleotide array. The Affymetrix array (Affymetrix, Inc. Santa Clara, Calif.) is comprised of over 1,300,000 unique oligonucleotide features that represent greater than 38,500 well-substantiated human genes. The array was hybridized for 16 hours at 45° C. with rotation at 60 rpm then washed and stained with a strepavidin, R-phycoerythrin conjugate stain on the Affymetrix Fluidicis Station 450. Signal amplification was done using biotinylated antistreptavidin. The arrays were scanned using the GeneChip® 3000 confocal laser scanner with autoloader. The images were analyzed and quality control metrics recorded using Affymetrix GCOS software version 1.4. Lastly, the expression value for each gene was calculated using dChip PM-only model based or Plier algorithm.
Pairwise comparisons were made as follows: Treated vs. Control (Y vs. D), Modified Drug vs Control (YM/ACY-H vs. D) and Treated vs. Modified Drug (Y vs. YM/ACH-Y) Cel files analyzed using the Bioconductor package of R Statistical programming. Limma analysis generated a reasonable number of changing genes between the samples.
The raw data in the .CEL files were normalized by the GCRMA method (robust multi-array analysis). It is implemented in Bioconductor (http://www.bioconductor.org/). The raw signal intensity data were normalized, background corrected and summarized based on certain statistical models, and an expression value, in log 2-scale, is obtained per chip per probe set. Then the null hypothesis was tested that there's no significant changes in gene expression between the treatment pairs. This was done by LIMMA and is also implemented in Bioconductor. It uses empirical Bayes method to estimate the variance in gene expression. One comparison was made, namely, High Grade vs. Low Grade. The raw p-values were adjusted by the Benjamnin-Hochberg method for false discovery rate (FDR) control. All data sets contained a significant number of genes with a p-value less than 0.05, which is that the probability that a gene is NOT differential expressed (false positive) is 1:20.

[3] = Homo sapiens, ES-2, ES2 cells, read-out: IC50

| Compound | IC50 (ES2(ovarian) cells; [3]) | ICAM1 intercellular adhesion molecule 1 (CD54), gene expression ratio to no drug control (D) [1] | MYLK myosin, light polypeptide kinase, gene expression ratio to no drug control (D) ([2]; probe 202555_s_at) | MYO6 myosin VI, gene expression ratio to no drug control (D) [2] | MYO5A myosin VA, gene expression ratio to no drug control (D) [2] | MYH9 myosin, heavy polypeptide 9, non-muscle, gene expression ratio to no drug control (D) [2] | MYO1D myosin ID, gene expression ratio to no drug control (D) [2] | MYH10 myosin, heavy polypeptide 10, non-muscle, gene expression ratio to no drug control (D) [2] | MYLK myosin, light polypeptide kinase, gene expression ratio to no drug control (D) ([2]; probe 224823_at) | MYO1C Myosin IC, gene expression ratio to no drug control (D) [2] | expression ratio to the control, myosin family [2] | growth of cells compared to the DMSO control (MTT) (ES2(ovarian) cells; ES2, 10 ug/ml (F13)) | viable cells by MTT assay (ES2(ovarian) cells; 7 hours) | viable cells by MTT assay (ES2(ovarian) cells; 18 hours) | viable cells by MTT assay (ES2(ovarian) cells; 24 hours) | IC50 (ES2(ovarian) cells; ES2 cells) | IC50 (ES2(ovarian) cells; Homo sapiens, ES2, Clear cell, read-out: IC50) | IC50 (ES2(ovarian) cells; Homo sapiens, ES-2, ES2 cells, combined with Paclitaxel, read-out: IC50 value for Xanifolia-Y when both drugs were used) |
| --- | --- | --- | --- | --- | --- | --- | --- | --- | --- | --- | --- | --- | --- | --- | --- | --- | --- | --- |
| C/C=C(/C)C(=O)O[C@H]1[C@H](OC(=O)/C(C)=C\C)[C@@]2(CO)C(CC1(C)C)C1=CCC3[C@@]4(C)CC[C@H](O)C(C)(C)C4CC[C@@]3(C)[C@]1(C)[C@@H](O)[C@H]2O (some centres unmarked) [ACH-Y] | 20 µg/mL | 2.3 folds | −1.2 folds | −1.6 folds | −1.2 folds | −1.2 folds | −2.1 folds | −1.4 folds | −1.4 folds | −1.4 folds | −1.2 to −2.1 folds | – | – | – | – | – | – | – |
| C/C=C(/C)C(=O)O[C@H]1[C@H](OC(=O)/C(C)=C\C)[C@@]2(CO)C(CC1(C)C)C1=CCC3[C@@]4(C)CC[C@H](O[C@@H]5OC(C(=O)O)[C@@H](O)C(O[C@@H]6O[C@@H](CO)C(O)C6O)C5O[C@@H]5OC(CO)[C@H](O)C(O)C5O)C(C)(C)C4CC[C@@]3(C)[C@]1(C)[C@@H](O)[C@H]2O (stereo partly drawn) [Xanifolia-Y, 3-O-[β-D-galactopyranosyl (1→2)]-α-L-arabinofuranosy (1→3)-β-D-glucuronopyranosyl-21,22-O-diangeloyl-3β, 15α, 16α, 21β, 22α, 28-hexahydroxyolean-12-ene] | 5 µg/mL | 1.6 folds | −1.6 folds | −1.6 folds | −1.6 folds | −2.2 folds | −1.7 folds | −1.7 folds | −1.5 folds | −1.5 folds | −1.5 to −2.2 folds | 89% | 93% | Over 95% | 85% and 87% | 4.4 µg/mL | 4.4 µM | 2.5 µg/mL |
